Experimental findings from patent publication US20250367129A1, “Lipid Compounds and Uses Thereof” (Pfizer Inc., priority 2022, published 2025) are described below.

The test system of data set [1] is Hela cells. The data set is described as follows: In vitro expression of novel ionizable lipid nanoparticles, high content imaging (CA HA modFlu mRNA). It is filed as cell-based. The settings on record: LNP with CA HA modFlu mRNA. The method, then: (§1) Plated Hek293T or Hela cells were dosed with lipid nanoparticles in a total volume of 40 μl cell culture media and incubated overnight at 37° C. and 5% CO2. After fixation with 4% paraformaldehyde in PBS cells were washed in PBS containing 0.3% Triton-X100 and 3% BSA (w/v), followed by nuclear staining with Hoechst and antibody staining for the encoded gene of interest. Nuclear count and identification of cells stained positive for gene of interest was done on an Opera Phenix high content imager (PerkinElmer, USA).
(§2) Lipid nanoparticles were prepared and tested according to the general procedures described in U.S. Pat. No. 9,737,619 (PCT Pub. No. WO2015/199952) and U.S. Pat. No. 10,166,298 (PCT Pub. No. WO 2017/075531) and PCT Pub. No. WO2020/146805. The novel ionizable lipids of the invention, cholesterol, distearoylphosphatidylcholine (DSPC) and ALC-0159 2-[(polyethylene glycol)-2000]-N,N ditetradecylacetamide were solubilized in ethanol at a molar ratio of about 46.3:42.7:9.4:1.6. Lipid nanoparticles were made by mixing the lipids containing organic phase with the mRNA containing aqueous phase using an N:P ratio of about 6:1. The mRNA was diluted in buffer. Syringe pumps were used to mix the ethanolic lipid solution with the mRNA aqueous solution. The ethanol was then removed, and the external buffer replaced with another buffer (e.g., Tris) by dialysis. Finally, the lipid nanoparticles were filtered.
(§3) Total RNA concentration and encapsulation efficiency was assessed using the RiboGreen RNA quantitation assay. RNA integrity pre and post formulation was monitored by Agilent Fragment Analyzer capillary gel electrophoresis. Malvern Zetasizer dynamic light scattering (DLS) was used to determine LNP size and polydispersity index (PDI). In vitro expression of the novel ionizable lipid nanoparticles was assessed in HEK293F and Hela cells similar to described in Example 72. Nuclear count and identification of cells stained positive for gene of interest was done on an Opera Phenix high content imager (PerkinElmer, USA).

Data set [2] concerns HEK293F cells. Described as above. It is filed as cell-based. As to conditions: LNP with CA HA modFlu mRNA. Here is the method: as §1, §2, §3
Data set [3] in a line: Encapsulation efficiency, RiboGreen RNA quantitation assay (CA HA modFlu mRNA LNPs). It is filed as physicochemical. As to conditions: LNP with CA HA modFlu mRNA. The method, then:
as §2, §3

The nature of data set [4]: LNP size and polydispersity index by Malvern Zetasizer dynamic light scattering (CA HA modFlu mRNA LNPs). It is filed as physicochemical. As to conditions: DLS; for Size (nm): LNP of the ionizable lipid:cholesterol:DSPC:ALC-0159 about 46.3:42.7:9.4:1.6, N:P about 6:1, CA HA modFlu mRNA; for PDI: LNP with CA HA modFlu mRNA. The method, then:
as §2, §3

The structures appear in SMILES notation. Some results are limits rather than exact numbers.

Consider `CCCCCCCC(CCCCCCC)C(=O)O[C@@H]1CC2(CCN(CCO)CC2)C[C@H]1OC(=O)C(CCCCCCC)CCCCCCC` (racemic) [Example 52, rac-(2R,3R)-8-(2-hydroxyethyl)-8-azaspiro[4.5]decane-2,3-diyl bis(2-heptylnonanoate)], for which the “EC50 Hela (ng/well)” value in data set [1] came out at 11.0 ng/well. For the same compound, the “EC50 Hek293F (ng/well)” value in data set [2] came out at 3.3 ng/well. In addition, the EE % in data set [3] was found to be 99%. In data set [4], the “Size (nm)” value amounted to 66 nm and the PDI stood at 0.088.

For `CCCCCCCC(CCCCCCC)C(=O)O[C@@H]1CC2(CCN(CCCO)C2)C[C@H]1OC(=O)C(CCCCCCC)CCCCCCC` (racemic) [Example 53, rac-(7R,8R)-2-(3-hydroxypropyl)-2-azaspiro[4.4]nonane-7,8-diyl bis(2-heptylnonanoate)], the “EC50 Hela (ng/well)” value in data set [1] came to 29.5 ng/well. In data set [2], the “EC50 Hek293F (ng/well)” value is 2.3 ng/well. Also, the EE % in data set [3] is 94%. For the same compound, in data set [4], the “Size (nm)” value was determined as 89 nm and the PDI is 0.090.

With `CCCCCCCC(CCCCCCC)C(=O)O[C@@H]1CC2(CCN(CCCO)CC2)C[C@H]1OC(=O)C(CCCCCCC)CCCCCCC` (racemic) [Example 54, rac-(2R,3R)-8-(3-hydroxypropyl)-8-azaspiro[4.5]decane-2,3-diyl bis(2-heptylnonanoate)], the “EC50 Hela (ng/well)” value in data set [1] is recorded as 3.6 ng/well. For the same compound, the “EC50 Hek293F (ng/well)” value in data set [2] amounted to 1.5 ng/well. For the same compound, the EE % in data set [3] amounted to 98%. In addition, in data set [4], the “Size (nm)” value is 71 nm and the PDI is 0.101.

Turning to `CCCCCCCC(CCCCCCC)C(=O)O[C@@H]1CC2(CCN(CCCNc3c(NC)c(=O)c3=O)CC2)C[C@H]1OC(=O)C(CCCCCCC)CCCCCCC` (racemic) [Example 55, rac-(2R,3R)-8-(3-((2-(methylamino)-3,4-dioxocyclobut-1-en-1-yl)amino)propyl)-8-azaspiro[4.5]decane-2,3-diyl bis(2-heptylnonanoate)], the “EC50 Hela (ng/well)” value in data set [1] was found to be 45.0 ng/well. In addition, the “EC50 Hek293F (ng/well)” value in data set [2] stood at 21.4 ng/well. In data set [3], this compound displayed an EE % of 100%. Further, in data set [4], the “Size (nm)” value stood at 65 nm and the PDI amounted to 0.124.

As for `CCCCCCCC(CCCCCCC)C(=O)O[C@@H]1CC2(CCN(CCCCCO)CC2)C[C@H]1OC(=O)C(CCCCCCC)CCCCCCC` (racemic) [Example 56, rac-(2R,3R)-8-(5-hydroxypentyl)-8-azaspiro[4.5]decane-2,3-diyl bis(2-heptylnonanoate)], the “EC50 Hela (ng/well)” value in data set [1] is 0.96 ng/well. Also, the “EC50 Hek293F (ng/well)” value in data set [2] turned out to be 0.60 ng/well. For the same compound, the EE % in data set [3] is given as 98%. For the same compound, in data set [4], the “Size (nm)” value amounted to 81 nm and the PDI is 0.063.

For `CCCCCCCCC(CCCCCCCC)C(=O)O[C@@H]1CC2(CCN(CCCCO)CC2)C[C@H]1OC(=O)C(CCCCCCCC)CCCCCCCC` (racemic) [Example 59, rac-(2R,3R)-8-(4-hydroxybutyl)-8-azaspiro[4.5]decane-2,3-diyl bis(2-octyldecanoate)], in data set [1], the “EC50 Hela (ng/well)” value turned out to be 34.6 ng/well. Also, the “EC50 Hek293F (ng/well)” value in data set [2] was 2.3 ng/well. In data set [3], this compound returned an EE % of 97%. For the same compound, in data set [4], the “Size (nm)” value worked out at 80 nm and the PDI turned out to be 0.091.

`CCCCCCCCCCCCC(CCCCCCC)C(=O)O[C@@H]1CC2(CCN(CCCCO)CC2)C[C@H]1OC(=O)C(CCCCCCC)CCCCCCCCCCCC` (mixture of isomers) [Example 60, rac-(2R,3R)-8-(4-hydroxybutyl)-8-azaspiro[4.5]decane-2,3-diyl bis(2-heptyltetradecanoate)]: in data set [1], the “EC50 Hela (ng/well)” value was >50 ng/well. The “EC50 Hek293F (ng/well)” value in data set [2] worked out at 1.6 ng/well. Further, in data set [3], the EE % is given as 98%. In data set [4], the “Size (nm)” value was determined as 94 nm and the PDI worked out at 0.117.

In the case of `CCCCCCCCC(CCCCCC)C(=O)O[C@@H]1CC2(CCN(CCCCO)CC2)C[C@H]1OC(=O)C(CCCCCC)CCCCCCCC` (mixture of isomers) [Example 61, rac-(2R,3R)-8-(4-hydroxybutyl)-8-azaspiro[4.5]decane-2,3-diyl bis(2-hexyldecanoate)], the “EC50 Hela (ng/well)” value in data set [1] was found to be 1.6 ng/well. The “EC50 Hek293F (ng/well)” value in data set [2] is on record as 1.0 ng/well. Besides, in data set [3], the EE % is on record as 99%. Besides, in data set [4], the “Size (nm)” value came out at 77 nm and the PDI was found to be 0.094.

For `CCCCCCCC(CCCCCCC)OC(=O)CCC(=O)O[C@@H]1CC2(CCN(CCCCO)CC2)C[C@H]1OC(=O)CCC(=O)OC(CCCCCCC)CCCCCCC` (racemic) [Example 62, rac-O,O′-((2R,3R)-8-(4-hydroxybutyl)-8-azaspiro[4.5]decane-2,3-diyl) di(pentadecan-8-yl) disuccinate], in data set [1], the “EC50 Hela (ng/well)” value is 1.0 ng/well. Besides, the “EC50 Hek293F (ng/well)” value in data set [2] was 0.36 ng/well. Besides, in data set [3], the EE % came to 99%. Further, in data set [4], the “Size (nm)” value turned out to be 161 nm and the PDI is reported as 0.090.

As for `CCCCCCCC(CCCCCCC)OC(=O)CCCCCC(=O)O[C@@H]1CC2(CCN(CCCCO)CC2)C[C@H]1OC(=O)CCCCCC(=O)OC(CCCCCCC)CCCCCCC` (racemic) [Example 63, rac-O′^1,O^1-((2R,3R)-8-(4-hydroxybutyl)-8-azaspiro[4.5]decane-2,3-diyl) 7,7′-di(pentadecan-8-yl) di(heptanedioate)], in data set [1], the “EC50 Hela (ng/well)” value turned out to be 0.58 ng/well. In data set [2], the “EC50 Hek293F (ng/well)” value was 0.39 ng/well. Further, the EE % in data set [3] is listed as 99%. In addition, in data set [4], the “Size (nm)” value is reported as 107 nm and the PDI stood at 0.060.

With `CCCCCCCC(CCCCCCC)C(=O)OCCCCCC(=O)O[C@@H]1CC2(CCN(CCCCO)CC2)C[C@H]1OC(=O)CCCCCOC(=O)C(CCCCCCC)CCCCCCC` (racemic) [Example 64, rac-(((2R,3R)-8-(4-hydroxybutyl)-8-azaspiro[4.5]decane-2,3-diyl)bis(oxy))bis(6-oxohexane-6,1-diyl) bis(2-heptylnonanoate)], in data set [1], the “EC50 Hela (ng/well)” value came out at 0.69 ng/well. For the same compound, the “EC50 Hek293F (ng/well)” value in data set [2] is listed as 0.64 ng/well. The compound also came in with an EE % in data set [3] of 99%. In data set [4], the “Size (nm)” value is 110 nm and the PDI is recorded as 0.056.

With `CCCCCCCCC(CCCCC)C(=O)O[C@@H]1CC2(CCN(CCCCO)CC2)C[C@H]1OC(=O)C(CCCCC)CCCCCCCC` (mixture of isomers) [Example 65, rac-(2R,3R)-8-(4-hydroxybutyl)-8-azaspiro[4.5]decane-2,3-diyl bis(2-pentyldecanoate)], the “EC50 Hela (ng/well)” value in data set [1] is on record as 0.57 ng/well. Further, the “EC50 Hek293F (ng/well)” value in data set [2] was found to be 0.35 ng/well. For the same compound, in data set [3], the EE % was determined as 97%. In data set [4], the “Size (nm)” value turned out to be 123 nm and the PDI is listed as 0.038.

Turning to `CCCCCCCCC(CCCCCCC)C(=O)O[C@@H]1CC2(CCN(CCCCO)CC2)C[C@H]1OC(=O)C(CCCCCCC)CCCCCCCC` (mixture of isomers) [Example 66, rac-(2R,3R)-8-(4-hydroxybutyl)-8-azaspiro[4.5]decane-2,3-diyl bis(2-heptyldecanoate)], the “EC50 Hela (ng/well)” value in data set [1] turned out to be 2.2 ng/well. Also, the “EC50 Hek293F (ng/well)” value in data set [2] is listed as 1.1 ng/well. Moreover, the EE % in data set [3] is given as 97%. In addition, in data set [4], the “Size (nm)” value came to 78 nm and the PDI is 0.146.

For the compound `CCCCCCCCCC(CCCCCC)C(=O)O[C@@H]1CC2(CCN(CCCCO)CC2)C[C@H]1OC(=O)C(CCCCCC)CCCCCCCCC` (mixture of isomers) [Example 67, rac-(2R,3R)-8-(4-hydroxybutyl)-8-azaspiro[4.5]decane-2,3-diyl bis(2-hexylundecanoate)], the “EC50 Hela (ng/well)” value in data set [1] is on record as 2.0 ng/well. Besides, in data set [2], the “EC50 Hek293F (ng/well)” value amounted to 1.4 ng/well. Further, in data set [3], the EE % was found to be 96%. Moreover, in data set [4], the “Size (nm)” value was determined as 89 nm and the PDI stood at 0.127.

On to `CCCCCCCCC(CCCCCC)C(=O)O[C@@H]1CC2(CCN(CCCCO)CC2)C[C@H]1OC(=O)C(CC)CCCCCCC` (mixture of isomers) [Example 70, rac-(2R,3R)-3-((2-ethylnonanoyl)oxy)-8-(4-hydroxybutyl)-8-azaspiro[4.5]decan-2-yl 2-hexyldecanoate], for which, in data set [1], the “EC50 Hela (ng/well)” value was found to be 1.2 ng/well. Further, the “EC50 Hek293F (ng/well)” value in data set [2] amounted to 3.0 ng/well. For the same compound, in data set [3], the EE % came to 98%. Also, in data set [4], the “Size (nm)” value came out at 116 nm and the PDI worked out at 0.110.

On to `CCCCCCCC(CCCCCCC)C(=O)O[C@@H]1CC2(CCN(CCCCO)CC2)C[C@H]1OC(=O)C(CCCCCCC)CCCCCCC` (single isomer, unassigned) [Example 57, (2R*,3R*)-8-(4-hydroxybutyl)-8-azaspiro[4.5]decane-2,3-diyl bis(2-heptylnonanoate)], for which the “EC50 Hela (ng/well)” value in data set [1] came out at 4.7 ng/well. Besides, the “EC50 Hek293F (ng/well)” value in data set [2] is listed as 2.9 ng/well. The EE % in data set [3] is reported as 99%. Further, in data set [4], the “Size (nm)” value turned out to be 74 nm and the PDI amounted to 0.118.
